1 compound from ChEMBL document CHEMBL3244275, “Synthesis and antitumor activity of 1,2-dihydro-1-(2-deosy-beta-D-erythro-pentofuranosyl)-2-oxo-5-methylpyrazine 4-oxide, a structural analogue of thymidine” (J Med Chem, 1977) can be followed below.

The subject of data set [1] is L1210. The data set can be described thus: Growth inhibition of mouse L1210 cells at inhibitor/deoxyuridine ratio 2 after 40 hrs by trypan blue exclusion assay. Format: functional.
Data set [2] deals with Escherichia coli. In words: Antibacterial activity against Escherichia coli K-12 at 1 x 10^-3 M. Format: functional. The settings on record: read-out: GI.
Data set [3] deals with L1210. The data set can be described thus: Antitumor activity against mouse L1210 cells allografted in DBA/2 Ha mouse assessed as increase in life span of host at 200 mg/kg, ip qd for 6 days relative to control. It counts as functional. Particulars: route intraperitoneal.
For data set [4], the system named is L1210. In words: Growth inhibition of mouse L1210 cells at inhibitor/uridine ratio 0.04 after 40 hrs by trypan blue exclusion assay. Format: functional.
For data set [5], the system named is L1210. The data set can be described thus: Growth inhibition of mouse L1210 cells at inhibitor/deoxycytidine ratio 0.2 after 40 hrs by trypan blue exclusion assay. Format: functional.
Data set [6] deals with L1210. The data set can be described thus: Antitumor activity against mouse L1210 cells allografted in DBA/2 Ha mouse assessed as increase in life span of host at 100 mg/kg, ip qd for 6 days relative to control. Format: functional. Particulars: route intraperitoneal.
Data set [7] deals with Escherichia coli. In words: Antibacterial activity against Escherichia coli at 1 x 10^-3 M. Format: functional. The settings on record: read-out: GI.
The test system of data set [8] is L1210. In words: Growth inhibition of mouse L1210 cells at inhibitor/thymidine ratio 50 after 40 hrs by trypan blue exclusion assay. It counts as functional.
Data set [9] concerns L1210. The data set can be described thus: Growth inhibition of mouse L1210 cells at 9 x 10^-7 M after 40 hrs by trypan blue exclusion assay. Format: functional. Particulars: L1210, 40 h, read-out: GI.
Data set [10] has as its system L1210. The data set can be described thus: Growth inhibition of mouse L1210 cells at inhibitor/cytidine ratio 0.02 after 40 hrs by trypan blue exclusion assay. Format: functional.
In data set [11] the test system is L1210. The data set can be described thus: Antitumor activity against mouse L1210 cells allografted in DBA/2 Ha mouse assessed as increase in life span of host at 400 mg/kg, ip qd for 6 days relative to control. The settings on record: route intraperitoneal. Format: functional.
The test system of a further data set is Enterococcus faecium. In words: Antibacterial activity against Streptococcus faecium at 8 x 10^-5 M. It counts as functional. Particulars: read-out: GI.
The test system of a further data set is Mus musculus. The data set can be described thus: Toxicity in mouse L1210 cells allografted DBA/2 Ha mouse assessed as overt signs of toxicity at 100 to 400 mg/kg, ip qd for 6 days. It counts as organism-based. Also on record: dose 100-400 mg/kg, route intraperitoneal. Particulars: in vivo, 144 h.

With `Cc1cn([C@H]2C[C@H](O)[C@@H](CO)O2)c(=O)c[n+]1[O-]`, the “growth inhibition (GI)” value in the data set on L1210 [1], in the data set on L1210 [4], in the data set on L1210 [5], in the data set with L1210 [8] and in the data set with L1210 [10] was 50% throughout. The inhibition of growth at 1000 µM in the data set with Escherichia coli [2] was 30%; with Escherichia coli [7] it was 20%. The Activity in the data set with L1210 [3] is 30%; in the data set on L1210 [6], 18%; in the data set on L1210 [11], 55%; with Mus musculus it was “Non-toxic”. Besides, the inhibition of growth at 0.9 µM in the data set on L1210 [9] was 50%. In the data set with Enterococcus faecium, the inhibition of growth at 80 µM worked out at 50%.
